Data: patent publication US7745450B2, “Pyrazolo[4,3-d]pyrimidines, processes for their preparation and methods for therapy” (Institute of Experimental Botany, priority 2002, dated 2010)
Like-named read-outs stand apart in the source and are kept apart here.

Key:
[1] = test system: β-adrenergic receptors; experiment: Modulation of isoproterenol-induced cAMP synthesis in rat C6 glioma; type: cell-based; conditions: cAMP synthesis induced by 5 μM (−) isoproterenol; for IC50: read-out: I50
Method: Mechanism of action of novel compounds is presented on FIG. 3. Rat C6 glioma (ATCC N° CCL107) was cultivated in monolayer in serum-free chemically defined medium containing Ham's F10/minimal essential medium (1:1 vol/vol), 2 mM L-glutamine, 1% (vol/vol) minimal essential medium vitamins (100×), 1% (vol/vol) minimal essential medium nonessential amino acids (100×), 100 U/ml penicillin, 100 μg/ml streptomycin and 30 nM sodium selenide. Incubation was at 37° C. in a humidified atmosphere. Assays were performed in the logarithmic growth phase at a density of 2.5×10^5 cells/cm^2. Intracellular cAMP synthesis was induced by addition of 5 μM (−) isoproterenol. After 30 min incubation at 37° C. the medium was removed and the cellular amount of cAMP determined using the cAMP-enzyme immunoassay kit of Amersham. The I50 is determined from a dose-response curve in duplicate.
The effect of seven purine-analogs was measured after simultaneous addition with isoproterenol.

[2] = molecular target: cdk1/cyclin B (CDC2) (Homo sapiens, UniProt P06493); experiment: CDK inhibition assay, cdk1/cyclin B (CDC2) kinase, histone phosphorylation; type: biochemical
Chain of cdk1/cyclin B (CDC2) (P06493 whole entry, species assumed): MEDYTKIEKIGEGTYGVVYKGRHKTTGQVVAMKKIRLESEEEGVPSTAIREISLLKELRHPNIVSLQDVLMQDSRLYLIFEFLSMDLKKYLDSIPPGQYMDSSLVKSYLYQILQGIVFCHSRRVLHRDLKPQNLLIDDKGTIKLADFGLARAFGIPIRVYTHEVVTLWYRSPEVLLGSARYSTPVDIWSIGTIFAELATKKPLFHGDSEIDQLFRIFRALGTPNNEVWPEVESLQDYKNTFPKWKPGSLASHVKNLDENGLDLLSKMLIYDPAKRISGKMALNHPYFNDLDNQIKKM
Chain of cdk1/cyclin B (CDC2) (P14635 whole entry partner, species assumed): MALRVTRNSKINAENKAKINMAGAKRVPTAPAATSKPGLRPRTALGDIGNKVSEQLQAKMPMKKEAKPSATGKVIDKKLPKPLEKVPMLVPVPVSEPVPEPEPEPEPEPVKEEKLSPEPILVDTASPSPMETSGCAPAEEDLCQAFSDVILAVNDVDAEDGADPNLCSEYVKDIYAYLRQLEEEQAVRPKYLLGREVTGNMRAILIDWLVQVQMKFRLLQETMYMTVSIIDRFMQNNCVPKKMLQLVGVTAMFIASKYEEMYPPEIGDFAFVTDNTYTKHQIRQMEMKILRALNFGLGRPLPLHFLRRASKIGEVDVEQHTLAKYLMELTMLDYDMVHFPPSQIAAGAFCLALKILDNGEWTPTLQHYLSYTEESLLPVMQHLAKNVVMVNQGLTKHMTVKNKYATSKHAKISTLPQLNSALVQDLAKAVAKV
How it was run: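 Human cdk1/cyclin B activity measured with 1 mg/ml histone substrate, 15 μM ATP plus [γ-32P]ATP, in HEPES pH 7.4 buffer with 10 mM MgCl2. Phosphorylation quantified by phosphorimaging; activity expressed as % of maximum, IC50 from dose-response curves by graphic analysis.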

[3] = test system: Cytokinin-dependent tobacco callus Nicotiana tabacum L. cv. Wisconsins 38; experiment: Tobacco callus bioassay for cytotoxicity (herbicidal activity); type: cell-based; conditions: Nicotiana tabacum, 672 h
Method: The novel compounds have also been tested in tobacco callus bioassay for cytotoxicity (herbicidal activity) and induction of cell death. The compounds to be tested were dissolved in dimethylsulfoxide (DMSO) and the solution brought up to 10^−3 M with distilled water. […] Cytokinin-dependent tobacco callus Nicotiana tabacum L. cv. Wisconsins 38 Murashige-Skoog medium, containing per 1 liter: 4 μmol nicotinic acid, 2.4 μmol pyridoxine hydrochloride, 1.2 μmol thiamine, 26.6 μmol glycine, 1.37 μmol glutamine, 1.8 μmol myo.inositol, 30 g of sucrose, 8 g of agar, […] α-naphthylacetic acid and 0.5 μmol 6-benzylaminopurine. Sub cultivation was carried out every three weeks. Fourteen days before the bioassay, the callus tissue was transferred to the media without 6-benzylaminopurine. Compounds were tested with two different concentrations of 6-benzylaminopurine (10^−5 M and 10^−6 M). Inhibitory growth activity was determined from the increase in fresh callus weight after four weeks of cultivation. Five replicates were prepared for each concentration tested and the entire test was repeated at least twice.

[4] = molecular target: MMK1 protein kinase (Vicia faba, UniProt A0AAV1B7B8); experiment: MMK1 protein kinase activity; type: biochemical
Chain of MMK1 protein kinase (A0AAV1B7B8 1-394): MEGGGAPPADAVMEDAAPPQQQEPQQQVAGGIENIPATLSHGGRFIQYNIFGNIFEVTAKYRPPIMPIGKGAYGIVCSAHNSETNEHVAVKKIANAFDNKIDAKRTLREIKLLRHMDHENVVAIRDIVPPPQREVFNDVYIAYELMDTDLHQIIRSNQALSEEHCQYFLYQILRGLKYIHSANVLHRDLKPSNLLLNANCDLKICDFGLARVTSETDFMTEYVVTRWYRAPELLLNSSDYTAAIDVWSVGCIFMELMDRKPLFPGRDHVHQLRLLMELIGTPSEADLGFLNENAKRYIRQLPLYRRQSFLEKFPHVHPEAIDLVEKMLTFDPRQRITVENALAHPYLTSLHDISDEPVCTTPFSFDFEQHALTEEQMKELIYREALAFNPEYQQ
How it was run: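 Plant CDK was purified from extracts on p13^suc1-beads or by anti-cdc2a-MS immunopurification, and MMK1 was immunopurified from Vicia faba extracts. Kinase activity was read as radioactivity incorporated into histone H1 or myelin basic protein, quantified by phosphoimager.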

[5] = test system: CEM (human lymphoblastoid leukemia); experiment: In vitro cytotoxic activity, Calcein AM; type: cell-based; conditions: Homo sapiens, 72 h, three days
How it was run: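 CEM cells were seeded at 10^4/well in DMEM + 10% FBS and exposed to six concentrations from 200 to 0.2 μM, in triplicate, for 3 days at 37 °C and 5% CO2. Viable cells were then measured by Calcein AM fluorescence after 1 h loading.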

[6] = test system: normal human lymphocytes; experiment: Immunosuppressive activity, 3H-thymidine incorporation in concanavalin A activated lymphocytes; type: cell-based; conditions: Lymphocyte, 72 hours, [3H]-TdR, read-out: Human lymphocytes ED50
Method: Human heparinized peripheral blood was obtained from healthy volunteers by cubital vein punction. The blood was diluted in PBS (1:3) and mononuclear cells were separated by centrifugation in Ficoll-Hypaque density gradient (Pharmacia, 1.077 g/ml) at 2200 rpm for 30 minutes. Following centrifugation, lymphocytes were washed in PBS and resuspended in cell culture medium (RMPI 1640, 2 mM glutamine, 100 U/ml penicillin, 100 μg/ml streptomycin, 10% fetal calf serum and sodium bicarbonate).
The cells were diluted at target density of 1.100.000 cells/ml were added by pipette (180 μl) into 96/well microtiter plates. Four-fold dilutions of the intended test concentration were added at time zero in 20 μl aliquots to the microtiter plate wells. Usually, test compound was evaluated at six 4-fold dilutions. In routine testing, the highest well concentration was 266.7 μM. All drug concentrations were examined in duplicates. All wells with exception of unstimulated controls were activated with 50 μl of concanavalin A (25 μg/ml). Incubations of cells with test compounds lasted for 72 hours at 37° C., in 5% CO2 atmosphere and 100% humidity. At the end of incubation period, the cells were assayed by using the [^3H]-TdR:
Cell cultures were incubated with 0.5 μCi (20 μl of stock solution […]) per well for 6 hours at 37° C. and 5% CO2. The automated cell harvester was used to lyse cells in water and adsorb the DNA onto glass-fiber filters in the format of microtiter plate. The DNA incorporated [^3H]-TdR was retained on the filter while unincorporated material passes through. The filters were dried at room temperature overnight, sealed into a sample bag with 10-12 ml of scintillant. The amount of [^3H]-TdR present in each filter (in cpm) was determined by scintillation counting in a Betaplate liquid scintillation counter. The effective dose of immunosuppressant (ED) was calculated using the following equation: ED=(CCPMdrug exposed well/mean CCPMcontrol wells)×100%.

[7] = test system: human melanoma cell line Arn8 (p53-responsive reporter); experiment: p53-dependent transcriptional activity, β-galactosidase reporter; type: cell-based; conditions: concentration inducing maximum of β-galactosidase activity
Method: Cell lines established from the human cervical carcinoma (HeLa), human breast carcinoma (MCF-7, BT549 and BR474), human osteosarcoma (HOS), human colon carcinoma (HT29), murine fibroblasts (T221acZ) and the human melanoma (Arn8) cell lines were cultured in Dubecco's Modified Eagle Medium (DMEM) supplemented with 10% fetal bovine serum. Tested compounds were added from 50 mM stock solution in dimethyl-sulphoxide (DMSO) into the culture medium at final concentration 20 μM. Control cells received an equivalent volume of DMSO.
β-galactosidase activity of human melanoma cell line […] T221acZ (both stabile transfected with a p53-responsive reporter construct pRGCΔfoslacZ) (Frebung et al., Cancer Res., 52, 1992-6976) was determined. For the determination of total β-galactosidase activity, cells were lysed by 3 freeze-thaw cycles in 0.25 M Tris pH 7.5, and lysates were assayed as described by Sambrook et al., Mol. cloning, New York, 1989.
Effect of 25 and related compounds on activation of p53 protein was also analyzed in human melanoma cell line Arn8 and murine fibroblast cell line T22LacZ expressing β-galactosidase under control of p53 responsive promoter. Induction of wt p53 in these cells treated with 20 μM 25 (6, 12 and 24 hrs) leads to activation of responsive promoter and consequently to expression of β-galactosidase. Arn8 and T221acZ cells treated with 25 were fixed and examined microscopically for β-galactosidase activity using X-gal substrate leading to about 25% blue-colored cells compared to less than 1% of blue-colored cells in DMSO-treated control cells (data not shown). The total β-galactosidase activity in Arn8 cells was also assessed using colorimetric assay.

[8] = test system: B16; experiment: In vitro cytotoxic activity, Calcein AM; type: cell-based; conditions: Mus musculus, B16, 72 h, three days
[9] = test system: PHA-stimulated lymphocytes (PBMC); experiment: Proliferation of PHA-stimulated lymphocytes (PBMC), flow cytometric cell count; type: cell-based, human; conditions: 96 hours, IL-2
Method: Peripheral blood mononuclear cells (PBMC): Human peripheral blood mononuclear cells were isolated by density gradient (Ficoll-Hypaque) (LSM, ICN Biomedicals Inc.). PBMC were stimulated with 5 μg/ml phytohemaglutinin A (PHA) (Sigma) during 24-48 hours in IMDM supplemented with 10% FCS at 37° C. After washing off the PHA, PBMC were incubated with interleukin-2 (IL-2) (10 U/ml) (Genzyme).
(§1) Cells were plated at 10000 per well in 200 μl IMDM medium and incubated with 0-50 μM of the novel compounds (Tab 8), by addition of drug directly to the culture medium and incubated at 37° C. for 96 hours (Tab 8). Absolute cell number was determined by addition of a known concentration Fluoresbrite microspheres (FITC) (Polysciences, Inc.). The absolute number of cells/well was calculated as: {(total number of beads added/well)/(number of beads measured)×(number of measured cells in the gate of interest)}. All analyses were performed with a FACScan (BD), using CELLQuest software (Becton Dickinson).
PHA-stimulated lymphocytes (PBMC) were tested for their cytotoxicity as one of the normal counterparts of the cell lines. Cells were grown for 96 hours in the presence of IL-2 and different concentrations of the novel compounds and cell number was counted on the flow cytometer.

[10] = test system: myeloid leukemia KG1 cell line; experiment: Cell proliferation of KG1, flow cytometric cell count; type: cell-based, human; conditions: 96 hours; for IC50: read-out: KG1 IC50
Method: (§2) Cell lines: Human leukemic cell lines were obtained from the American Type Culture Collection (ATCC, Rockville, Md., USA). They were cultured in Iscove's Modified Dulbecco's Medium (IMDM) supplemented with 10% heat inactivated fetal calf serum (FCS), 200 U/ml penicillin, 200 μg/ml streptomycin and 1 μg/ml amphotericin B. Cells were cultured in a 5% CO2-95% air fully humidified incubator. For effects on clonogenic output, 1000 cells/well were plated in duplicate in methylcellulose (0.9%), supplemented with 20% FCS for 14 days.
as §1
(§3) Response of the myeloid leukemia KG1 and T-lymphocyte leukemia Molt3 cell lines to the cytostatic effect of the novel compounds was determined using the above-mentioned standardized bead suspension that was used to determine the absolute cell number by flow cytometric (FCM) measurement. Cells were grown in the presence of increasing concentration of the novel compounds.
To determine reversibility of the effects of the novel compounds, cells were plated at 10000 per well and exposed to 0-50 μM of the compounds for the time indicated, followed by washing in phosphate-buffered saline (PBS) (Life Technologies) and reseeded into drug-free medium for 7 additional days. An identical set of cells was plated and exposed to the drugs for 7 additional days. After 7 days (168 hours), the relative cell number was assayed by flow cytometry.

[11] = test system: T-lymphocyte leukemia Molt3 cell line; experiment: Cell proliferation of Molt3, flow cytometric cell count; type: cell-based, human; conditions: 96 hours
Method: as §2, §1, §3

Compound: CC(C)c1n[nH]c2c(NCc3ccccc3)nc(NC(CO)C(C)C)nc12 (stereo not shown)
- Effect ([1]; simultaneous addition, 30 min): inhibition
- IC50 [1]: 25 ± 2 µM

Compound: CC(C)c1n[nH]c2c(NCc3ccccc3)nc(NCCCN)nc12 [Compound 17, 5-(3-aminopropylamino)-7-benzylamino-3-isopropylpyrazolo[4,3-d]pyrimidine]
- IC50 [2]: 0.08 µM
- IC50 [1]: 25 ± 2 µM
- IC50 ([3]; read-out: 10^−5 M BAP IC50, 10^−5 M 6-benzylaminopurine, four weeks): > 50 µM
- IC50 ([3]; read-out: 10^−6 M BAP IC50, 10^−6 M 6-benzylaminopurine, four weeks): 48 µM

Compound: CC[C@H](CO)Nc1nc(NCc2ccccc2)c2[nH]nc(C)c2n1
- IC50 [4]: 1.3 µM
- GI50 [5]: 3.4 µM
- EC50 [6]: 9.5 µM
- Max β-Gal. Activtity Conc. [7]: 9.5 µM
- GI50 [8]: 4.2 µM

Compound: CC[C@H](CO)Nc1nc(NCc2ccc(OC)cc2)c2[nH]nc(C(C)C)c2n1
- Max β-Gal. Activtity Conc. [7]: 0.8 µM

Compound: CC[C@H](CO)Nc1nc(NCc2ccc(O)cc2)c2[nH]nc(C(C)C)c2n1
- Effect: activation ([1]; simultaneous addition, 30 min): 1.8-fold activation

Compound: 5-(2-hydroxyethylthio)-671-phenyl-2-hydroxyethylamino-3-isopropylpyrazolo[4,3-d]pyrimidine [Compound 96]
- IC50 ([2]; cell free system (Table 8)): 5.8 µM
- IC50 [9]: 8 ± 0.5 µM
- Effectiveness on KG1 compared with normal PBMC [10]: significantly more effective on KG1 than on normal PBMC
- IC50 [10]: 9 ± 0.4 µM
- IC50 [11]: 10 ± 1.2 µM

Compound: COc1ccc(CNc2nc(NC3CCCC3)nc3c(C(C)C)n[nH]c23)cc1
- Max β-Gal. Activtity Conc. [7]: 21 µM

Compound: CC(C)c1n[nH]c2c(Nc3cccc(Cl)c3)nc(NC3CCCC3)nc12
- Max β-Gal. Activtity Conc. [7]: 11.5 µM

Compound: Cc1n[nH]c2c(NCc3ccccc3)nc(N[C@@H](CO)C(C)C)nc12
- IC50 [4]: 0.4 µM
- GI50 [5]: 2.8 µM
- EC50 [6]: 6.5 µM
- Max β-Gal. Activtity Conc. [7]: 6.5 µM
- GI50 [8]: 4.3 µM

Compound: CC(C)c1n[nH]c2c(Nc3cccc(Cl)c3)nc(N[C@@H](CO)C(C)C)nc12
- GI50 [5]: 1.2 µM
- EC50 [6]: 3.2 µM
- Max β-Gal. Activtity Conc. [7]: 7 µM
- GI50 [8]: 1.7 µM

Compound: 5-(hexylamino)-7-(1-phenyl-2-hydroxyethylamino)-3-isopropylpyrazolo[4,3-d]pyrimidine [Compound 98]
- Effect ([1]; simultaneous addition, 30 min): inhibition
- IC50 [1]: 8 ± 1 µM

Compound: CC[C@H](CO)Nc1nc(Nc2cccc(Cl)c2)c2[nH]nc(C(C)C)c2n1
- EC50 [6]: 1.8 µM
- Max β-Gal. Activtity Conc. [7]: 12 µM

Compound: CC(C)c1n[nH]c2c(SCc3ccccc3)nc(NCCCO)nc12 [Compound 145, 5-(3-hydroxypropylamino)-7-benzylthio-3-isopropylpyrazolo[4,3-d]pyrimidine]
- IC50 ([2]; cell free system (Table 8)): > 50 µM
- IC50 ([9]; Homo sapiens, Lymphocyte): 18 ± 1.6 µM
- IC50 ([10]; Homo sapiens, KG-1): 42 ± 5 µM
- IC50 ([11]; Homo sapiens, MOLT-3): 19 ± 2 µM
